Results: US9624179B1, “Quinazoline derivative Lu1501 and preparing method and application thereof” (NANJING GENERAL HOSPITAL OF NANJING MILITARY REGION OF PLA, priority 2015, dated 2017)
Like-named read-outs stand apart in the source and are kept apart here.

Legend:
Type in all cases: cell-based
[1] = tested on: SK-BR-3 (human breast cancer cell); assay: MTT inhibition of proliferation, SK-BR-3; details: SK-BR-3, MTT, 48 h, read-out: Inhibitory Activity on the Proliferation of Tumor Cells (IC50 ± SD) SK-BR-3
Experimental: (§1) The compound 8 of the invention was prepared into required concentrations using a culture medium containing 0.1% DMSO.
(§2) The seven tumor cells including MCF-7 (human breast cancer cell, ATCC:HTB-22), SK-BR-3 (human breast cancer cell, ATCC:HTB-30), A549 (human non-small cell lung cancer cell, ATCC:CRM-CCL-185), HCT116 (human colon cancer cell, ATCC:CCL-247), U-118 MG (human astrocytoma, ATCC:HTB-15), U-87 MG (human astrocytoma, ATCC:HTB-14), MDA-MB-468 (human breast cancer cell, ATCC:HTB-132) were all purchased from American Type Culture Collection (ATCC). […]
(§3) MCF-7, SK-BR-3, A549, HCT 116, U-118 MG U-87 MG and MDA-MB-468 cells in logarithmic phase with excellent growth conditions were grafted into a 96-well plate according to a density of 1×10^4 cells/mL, wherein each well was grafted 100 μl. […] A supernate was absorbed out carefully, 150 μl DMSO was added into each hole to dissolve purple residue (formazan), flatly oscillated for 10 min to completely dissolve deposits, then O.D. value (absorbancy) was measured on a microplate reader, wherein the wavelength was 570 nm. […]
(§4) The test was repeated for thrice. A diagram was made by plotting the inhibition rate against the concentration of the compound, and the IC50 (half effective inhibitive concentration) value of the compound 8 of the invention was calculated. […]

[2] = tested on: U-118 MG (human astrocytoma); assay: MTT inhibition of proliferation, U-118 MG; details: 48 h, read-out: Inhibitory Activity on the Proliferation of Tumor Cells (IC50 ± SD) U-118 MG
Experimental: as §1, §2, §3, §4

[3] = tested on: MDA-MB-468 (human breast cancer cell); assay: MTT inhibition of proliferation, MDA-MB-468; details: MDA-MB-468, MTT, 48 h, read-out: Inhibitory Activity on the Proliferation of Tumor Cells (IC50 ± SD) MDA-MB-468
Experimental: as §1, §2, §3, §4

[4] = tested on: U-87 MG (human astrocytoma); assay: MTT inhibition of proliferation, U-87 MG; details: 48 h, read-out: Inhibitory Activity on the Proliferation of Tumor Cells (IC50 ± SD) U-87 MG
Experimental: as §1, §2, §3, §4

[5] = tested on: MCF-7 (human breast cancer cell); assay: MTT inhibition of proliferation, MCF-7; details: MCF7, MCF-7, MTT, 48 h, read-out: Inhibitory Activity on the Proliferation of Tumor Cells (IC50 ± SD) MCF-7
Experimental: as §1, §2, §3, §4

[6] = tested on: HCT116 (human colon cancer cell); assay: MTT inhibition of proliferation, HCT 116; details: HCT 116, MTT, 48 h, read-out: Inhibitory Activity on the Proliferation of Tumor Cells (IC50 ± SD) HCT 116
Experimental: as §1, §2, §3, §4

[7] = tested on: A549 (human non-small cell lung cancer cell); assay: MTT inhibition of proliferation, A549; details: 48 h, read-out: Inhibitory Activity on the Proliferation of Tumor Cells (IC50 ± SD) A549
Experimental: as §1, §2, §3, §4

| IC50 [1] [µM] | IC50 [2] [µM] | IC50 [3] [µM] | IC50 [4] [µM] | IC50 ([1]; Homo sapiens) [µM] | IC50 ([2]; Homo sapiens) [µM] | IC50 [5] [µM] | IC50 [6] [µM] | IC50 [7] [µM] | IC50 ([3]; Homo sapiens) [µM] | IC50 ([4]; Homo sapiens) [µM] | Compound |
| --- | --- | --- | --- | --- | --- | --- | --- | --- | --- | --- | --- |
| 4.65 ± 0.02 | 13.5 ± 1.75 | 2.45 ± 0.31 | 82.5 ± 7.15 |  |  |  |  |  |  |  | COc1cccc2c1C(=O)c1c(O)c3c(c(O)c1C2=O)C[C@@](O)(C(=O)CO)C[C@@H]3O[C@H]1C[C@H](N)[C@H](O)[C@H](C)O1 [ADR, Adriamycin amycin, reference compound] |
|  |  |  |  | 10.2 ± 0.86 | 24.5 ± 2.68 | 16.1 ± 3.47 | 2.9 ± 1.02 | 5.66 ± 1.01 | 19.4 ± 1.33 | 5.45 ± 0.61 | COc1cc2ncnc(Nc3ccc(NCc4ccc(F)cc4)cc3)c2cc1OCCN1CCCC1 [Compound 8, N-[(4-fluorophenyl)methyl]-4-N-{7-methoxy-6-[(2-pyrrolidin-1-yl)hydroxyethyl]quinazolin-4-yl}phen-1,4-diamine] |
